Data from the supplement of paper PMC9663587.

Columns and labels:
[1] = compound: T1, CN(C)C/C=C/C(=O)Nc1ccc(C(=O)N2CCC[C@@H](Nc3ncc(Cl)c(-c4c[nH]c5ccccc45)n3)C2)cc1 [THZ531]; test: GR value, 72 h; higher = faster growth (1 = untreated, <0 = killing);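 note: breast cancer and non-malignant breast epithelial lines, nine half-log doses, viable cells counted by Hoechst and LIVE/DEAD dye imaging versus time-zero plates and DMSO controls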
[2] = compound: CCc1cnn2c(NCc3ccc[n+]([O-])c3)cc(N3CCCC[C@H]3CCO)nc12; test: as above
[3] = compound: CCN1CCN(Cc2ccc(Nc3ncc(F)c(-c4cc(F)c5nc(C)n(C(C)C)c5c4)n3)nc2)CC1; test: as above
[4] = compound: CN(C)C(=O)c1cc2cnc(Nc3ccc(N4CCNCC4)cn3)nc2n1C1CCCC1 [LEE011/Ribociclib]; test: as above
[5] = compound: CC(=O)c1c(C)c2cnc(Nc3ccc(N4CCN(CCOCCOCCOCCNC(=O)COc5cccc6c5C(=O)N(C5CCC(=O)NC5=O)C6=O)CC4)cn3)nc2n(C2CCCC2)c1=O [BSJ-03-123]; test: as above
[6] = compound: C=CC(=O)Nc1ccc(C(=O)Nc2[nH]nc3c2CN(C(=O)N[C@H](CN(C)C)c2ccccc2)C3(C)C)cc1 [YKL-5-124]; test: as above
[7] = compound: CN(C)C/C=C/C(=O)Nc1ccc(C(=O)Nc2cccc(Nc3ncc(Cl)c(-c4c[nH]c5ccccc45)n3)c2)cc1 [THZ1]; test: as above
[8] = compound: CC(=O)c1c(C)c2cnc(Nc3ccc(N4CCNCC4)cn3)nc2n(C2CCCC2)c1=O; test: as above
[9] = compound: T1, THZ531
[10] = compound: Cc1cc(Nc2ncc(Cl)c(Nc3ccccc3S(=O)(=O)C(C)C)n2)c(OC(C)C)cc1C1CCNCC1 [Ceritinib/LDK378]
[11] = compound: C[C@@H]1COCCN1c1cc(C2([S@](C)(=N)=O)CC2)nc(-c2cc[nH]c3nccc2-3)n1 [AZD6738]
[12] = compound: COc1cc2c(Oc3ccc4[nH]c(C)cc4c3F)ncnc2cc1OCCCN1CCCC1 [Cediranib/AZD2171]
[13] = compound: CC(=O)O[C@H]1C(=O)[C@@]2(C)[C@H]([C@H](OC(=O)c3ccccc3)[C@]3(O)C[C@H](OC(=O)[C@H](O)[C@@H](NC(=O)c4ccccc4)c4ccccc4)C(C)=C1C3(C)C)[C@]1(OC(C)=O)CO[C@@H]1C[C@@H]2O [Paclitaxel]
[14] = compound: CNCc1ccc(-c2[nH]c3cc(F)cc4c3c2CCNC4=O)cc1 [Rucaparib]
[15] = compound: O=C1NC(=O)[C@@H](c2cn3c4c(cccc24)CCC3)[C@@H]1c1c[nH]c2ccccc12 [Tivantinib/ARQ197]
[16] = compound: CN(C)C/C=C/C(=O)Nc1ccc(O[C@@H]2CCC[C@@H](Nc3ncc(Cl)c(-c4c[nH]c5ccccc45)n3)C2)cc1 [BSJ-01-175]
[17] = compound: CS(=O)(=O)N1CCN(Cc2cc3nc(-c4cccc5[nH]ncc45)nc(N4CCOCC4)c3s2)CC1 [Pictilisib/GDC0941]
[18] = compound: CN1CCN(C(=O)c2ccc3cc(CCNc4ncnc5ccc(C#N)cc45)ccc3c2)CC1 [senexin b]
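Throughout, for GR50, 72 h: breast cancer and non-malignant breast epithelial cell lines, Deep Dye Drop or Dye Drop imaging, nine half-log doses, GR normalized to time-zero plates and DMSO-only controls.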

SUM44PE gave a GR value ([1]; 0.0001 µM) of 1.05 GR, a GR value ([1]; 0.0003162 µM) of 0.994 GR and a GR value ([1]; 0.001 µM) of 0.799 GR. The GR value ([1]; 0.003162 µM) was 1.04 GR, the GR value ([1]; 0.01 µM) was 0.941 GR and the GR value ([1]; 0.03162 µM) was 0.783 GR. For the same cell line, the GR value ([1]; 0.1 µM) was -0.203 GR, the GR value ([2]; 0.0001 µM) was 0.983 GR and the GR value ([2]; 0.0003162 µM) was 1.03 GR. For the same cell line, the GR value ([2]; 0.001 µM) was 1.08 GR, the GR value ([2]; 0.003162 µM) was 0.918 GR and the GR value ([2]; 0.01 µM) was 0.257 GR. The GR value ([2]; 0.03162 µM) was -0.925 GR, the GR value ([3]; 0.001 µM) was 0.905 GR and the GR value ([3]; 0.003162 µM) was 0.922 GR. The GR value ([3]; 0.01 µM) was 0.666 GR, the GR value ([3]; 0.03162 µM) was 0.413 GR and the GR value ([3]; 0.1 µM) was 0.251 GR. It also gave a GR value ([3]; 0.3162 µM) of 0.237 GR, a GR value ([3]; 1 µM) of 0.201 GR and a GR value ([3]; 3.162 µM) of 0.134 GR. The GR value ([3]; 10 µM) was -0.763 GR, the GR value ([4]; 0.001 µM) was 0.854 GR and the GR value ([4]; 0.003162 µM) was 0.783 GR. It also gave a GR value ([4]; 0.01 µM) of 0.676 GR, a GR value ([4]; 0.03162 µM) of 0.637 GR and a GR value ([4]; 0.1 µM) of 0.663 GR. The GR value ([4]; 0.3162 µM) was 0.636 GR, the GR value ([4]; 1 µM) was 0.55 GR and the GR value ([4]; 3.162 µM) was 0.545 GR. For the same cell line, the GR value ([4]; 10 µM) was 0.378 GR, the GR value ([5]; 0.001 µM) was 0.917 GR and the GR value ([5]; 0.003162 µM) was 0.854 GR. It also gave a GR value ([5]; 0.01 µM) of 0.911 GR, a GR value ([5]; 0.03162 µM) of 0.8 GR and a GR value ([5]; 0.1 µM) of 0.722 GR. For the same cell line, the GR value ([5]; 0.3162 µM) was 0.669 GR, the GR value ([5]; 1 µM) was 0.45 GR and the GR value ([5]; 3.162 µM) was 0.337 GR. It also gave a GR value ([6]; 0.001 µM) of -0.181 GR, a GR value ([6]; 0.003162 µM) of 0.0065 GR and a GR value ([6]; 0.01 µM) of -0.018 GR. It also gave a GR value ([6]; 0.03162 µM) of -0.112 GR, a GR value ([6]; 0.1 µM) of -0.198 GR and a GR value ([6]; 0.3162 µM) of -0.167 GR. It also gave a GR value ([6]; 1 µM) of -0.274 GR, a GR value ([6]; 3.162 µM) of -0.448 GR and a GR value ([7]; 0.0001 µM) of 1.02 GR. For the same cell line, the GR value ([7]; 0.0003162 µM) was 0.977 GR, the GR value ([7]; 0.001 µM) was 0.784 GR and the GR value ([7]; 0.003162 µM) was 0.888 GR. For the same cell line, the GR value ([7]; 0.01 µM) was -0.229 GR, the GR value ([7]; 1 µM) was -0.0313 GR and the GR value ([8]; 0.0003162 µM) was 1.09 GR. It also gave a GR value ([8]; 0.001 µM) of 0.993 GR, a GR value ([8]; 0.003162 µM) of 1.03 GR and a GR value ([8]; 0.01 µM) of 1.04 GR. The GR value ([8]; 0.03162 µM) was 0.784 GR, the GR value ([8]; 0.1 µM) was 0.588 GR and the GR value ([8]; 0.3162 µM) was 0.461 GR. The GR value ([8]; 1 µM) was 0.514 GR, the GR value ([8]; 3.162 µM) was 0.397 GR and the “GR50, 72 h” value [9] was 0.0499 µM. For the same cell line, the “GR50, 72 h” value [10] was 2.56 µM, the “GR50, 72 h” value [11] was 0.549 µM and the “GR50, 72 h” value [12] was 9.59 µM. For the same cell line, the “GR50, 72 h” value [13] was 0.00153 µM, the “GR50, 72 h” value [14] was greater than 10 µM and the “GR50, 72 h” value [15] was 0.0449 µM. The “GR50, 72 h” value [16] was 0.0082 µM, the “GR50, 72 h” value [17] was 0.435 µM and the “GR50, 72 h” value [18] was 1.77 µM.

SUM52PE showed a GR value ([1]; 0.0001 µM) of 1.05 GR, a GR value ([1]; 0.0003162 µM) of 0.984 GR and a GR value ([1]; 0.001 µM) of 0.937 GR. The GR value ([1]; 0.003162 µM) was 0.994 GR, the GR value ([1]; 0.01 µM) was 1.02 GR and the GR value ([1]; 0.03162 µM) was 0.978 GR. It also gave a GR value ([1]; 0.1 µM) of 0.818 GR, a GR value ([1]; 0.3162 µM) of 0.186 GR and a GR value ([1]; 1 µM) of -0.226 GR. The GR value ([2]; 0.0001 µM) was 1.08 GR, the GR value ([2]; 0.0003162 µM) was 1.14 GR and the GR value ([2]; 0.001 µM) was 1.01 GR. For the same cell line, the GR value ([2]; 0.003162 µM) was 1.05 GR, the GR value ([2]; 0.01 µM) was 0.925 GR and the GR value ([2]; 0.03162 µM) was -0.0619 GR. It also gave a GR value ([2]; 0.1 µM) of -0.245 GR, a GR value ([2]; 0.3162 µM) of -0.322 GR and a GR value ([2]; 1 µM) of -0.175 GR. The GR value ([3]; 0.001 µM) was 0.991 GR, the GR value ([3]; 0.003162 µM) was 0.962 GR and the GR value ([3]; 0.01 µM) was 0.86 GR. It also gave a GR value ([3]; 0.03162 µM) of 0.766 GR, a GR value ([3]; 0.1 µM) of 0.619 GR and a GR value ([3]; 0.3162 µM) of 0.497 GR. The GR value ([3]; 1 µM) was 0.459 GR, the GR value ([3]; 3.162 µM) was 0.365 GR and the GR value ([3]; 10 µM) was 0.289 GR. It also gave a GR value ([4]; 0.001 µM) of 0.991 GR, a GR value ([4]; 0.003162 µM) of 0.857 GR and a GR value ([4]; 0.01 µM) of 0.861 GR. For the same cell line, the GR value ([4]; 0.03162 µM) was 0.86 GR, the GR value ([4]; 0.1 µM) was 0.822 GR and the GR value ([4]; 0.3162 µM) was 0.797 GR. For the same cell line, the GR value ([4]; 1 µM) was 0.69 GR, the GR value ([4]; 3.162 µM) was 0.681 GR and the GR value ([4]; 10 µM) was 0.54 GR. For the same cell line, the GR value ([5]; 0.001 µM) was 1.02 GR, the GR value ([5]; 0.003162 µM) was 0.851 GR and the GR value ([5]; 0.01 µM) was 0.868 GR. For the same cell line, the GR value ([5]; 0.03162 µM) was 0.883 GR, the GR value ([5]; 0.1 µM) was 0.862 GR and the GR value ([5]; 0.3162 µM) was 0.78 GR. The GR value ([5]; 1 µM) was 0.657 GR, the GR value ([5]; 3.162 µM) was 0.634 GR and the GR value ([5]; 10 µM) was 0.228 GR. It also gave a GR value ([6]; 0.001 µM) of 0.72 GR, a GR value ([6]; 0.003162 µM) of 0.654 GR and a GR value ([6]; 0.01 µM) of 0.573 GR. The GR value ([6]; 0.03162 µM) was 0.552 GR, the GR value ([6]; 0.1 µM) was 0.437 GR and the GR value ([6]; 0.3162 µM) was 0.391 GR. The GR value ([6]; 1 µM) was 0.364 GR, the GR value ([6]; 3.162 µM) was 0.227 GR and the GR value ([6]; 10 µM) was 0.0112 GR. For the same cell line, the GR value ([7]; 0.0001 µM) was 1.03 GR, the GR value ([7]; 0.0003162 µM) was 1.01 GR and the GR value ([7]; 0.001 µM) was 1.04 GR. For the same cell line, the GR value ([7]; 0.003162 µM) was 0.8 GR, the GR value ([7]; 0.01 µM) was 0.733 GR and the GR value ([7]; 0.03162 µM) was 0.0891 GR. It also gave a GR value ([7]; 0.1 µM) of -0.0885 GR, a GR value ([7]; 0.3162 µM) of -0.151 GR and a GR value ([7]; 1 µM) of -0.403 GR. The GR value ([8]; 0.0003162 µM) was 1.1 GR, the GR value ([8]; 0.001 µM) was 1.06 GR and the GR value ([8]; 0.003162 µM) was 1.01 GR. The GR value ([8]; 0.01 µM) was 0.97 GR, the GR value ([8]; 0.03162 µM) was 0.863 GR and the GR value ([8]; 0.1 µM) was 0.695 GR. It also gave a GR value ([8]; 0.3162 µM) of 0.607 GR, a GR value ([8]; 1 µM) of 0.475 GR and a GR value ([8]; 3.162 µM) of 0.348 GR. The “GR50, 72 h” value [9] was 0.149 µM, the “GR50, 72 h” value [10] was greater than 10 µM and the “GR50, 72 h” value [11] was 5.11 µM. For the same cell line, the “GR50, 72 h” value [12] was 0.17 µM, the “GR50, 72 h” value [13] was 0.00165 µM and the “GR50, 72 h” value [14] was greater than 10 µM. The “GR50, 72 h” value [15] was 0.33 µM, the “GR50, 72 h” value [16] was 0.0947 µM and the “GR50, 72 h” value [17] was 0.477 µM. For the same cell line, the “GR50, 72 h” value [18] was greater than 10 µM.
